In patent US12042473B2, “Compounds and combinations thereof for treating neurological and psychiatric conditions” (priority 2022, dated 2024):
Counter-ions that a name gives are not always drawn. Like-named read-outs stand apart in the source and are kept apart here.

What was measured:
[1] = human, in vivo
[2] = Co-administration of paroxetine and the subject combination in healthy volunteers (Example 3)
Source text: Co-administration of the SSRI paroxetine and the subject combination was studied in 29 healthy volunteers.

[3] = Food effect on pharmacokinetics of the subject combination; format: in vivo, human; conditions: subject combination administered with food
[4] = Pharmacokinetics after administration of the subject combination (steady state); conditions: for apparent elimination half-life: bupropion metabolites
[5] = Pharmacokinetics of the subject combination in CYP2D6 poor metabolizers (Example 2)
Source text: Approximately 7 to 10% of Caucasians and 3 to 8% of African Americans lack the capacity to metabolize CYP2D6 substrates and are classified as poor metabolizers.

[6] = Pharmacokinetics of the subject combination in moderate renal impairment (Example 1); conditions: moderate renal impairment (GFR 30-60 mL/min)
[7] = cited from earlier work; for incidence of sedation (MOAA/S score <5): treatment-resistant depression

For `CC(NC(C)(C)C)C(=O)c1cccc(Cl)c1.Cl` (racemic) [bupropion, (±)-1-(3-chlorophenyl)-2-[(1,1-dimethylethyl)amino]-1-propanone hydrochloride], the “increase in exposure versus matched controls with normal renal function” value [1] was “approximately 2 fold”, the “reduction in clearance versus matched controls with normal renal function” value [1] was 50% and the “increase in overall exposure when paroxetine is co-administered with the subject combination” value ([2]; human, in vivo) was “no effect”.

In the case of `COc1ccc2c(c1)[C@]13CCCC[C@@H]1[C@H](C2)N(C)CC3` [dextromethorphan, morphinan, 3-methoxy-17-methyl-, (9α, 13α, 14α), hydrobromide monohydrate], the “decrease in AUC0-12 with food” value [3] was 14%, the “increase in mean elimination half-life versus dextromethorphan given without bupropion” value ([4]; 8 days of subject combination, extensive metabolizers) was “approximately 3 fold” and the “median Tmax” value ([4]; after administration of the subject combination) was “about 3 hours”. For the same molecule, the “dose proportionality of AUC and Cmax at steady state” value ([4]; co-administered with bupropion, dextromethorphan 30 to 60 mg, bupropion 75 to 150 mg) was “nonlinear pharmacokinetics”, the mean elimination half-life ([4]; human, in vivo) was 22 h and the “increase in overall exposure when paroxetine is co-administered with the subject combination” value ([2]; healthy volunteers) was 2.5 fold. For the same molecule, the “steady state plasma concentrations compared with non-poor metabolizers” value ([5]; 12 poor metabolizers in efficacy trials) was “generally higher”, the “increase in AUC0-12 compared to extensive metabolizers” value ([5]; CYP2D6 poor metabolizers) was roughly 3.4 fold and the “increase in Cmax compared to extensive metabolizers” value ([5]; CYP2D6 poor metabolizers) was roughly 3 fold. The “increase in exposure versus matched controls with normal renal function” value [6] was “approximately 2 fold” and the “reduction in clearance versus matched controls with normal renal function” value [6] was 50%.

`CC(NC(C)(C)C)C(O)c1cccc(Cl)c1` (stereo not shown) [erythrohydroxybupropion] gave an apparent elimination half-life [4] of roughly 44 h.

For `CN[C@]1(c2ccccc2Cl)CCCCC1=O` [esketamine, Esketamine], the “incidence of sedation (MOAA/S score <5)” value ([7]; 56 mg + oral AD, patients <65 years, fixed-dose study) is given as 50%, the “incidence of sedation (MOAA/S score <5)” value ([7]; 84 mg + oral AD, patients <65 years, fixed-dose study) is given as 61% and the “incidence of sedation (MOAA/S score <5)” value ([7]; 28 to 84 mg + oral AD, patients ≥65 years, flexible-dose study) is given as 49%. For the same molecule, the “incidence of sedation (MOAA/S score<5) compared to placebo plus oral antidepressant” value ([7]; plus oral antidepressant, adults with MDD with acute suicidal ideation or behavior) was “higher incidence of sedation”.

In the case of `C[C@H]1NC(C)(C)CO[C@]1(O)c1cccc(Cl)c1` [hydroxybupropion], the apparent elimination half-life [4] was “approximately 35 hours”.

With `Fc1ccc([C@@H]2CCNC[C@H]2COc2ccc3c(c2)OCO3)cc1` [paroxetine] the “increase in overall exposure of paroxetine when co-administered with the subject combination” value ([2]; human, in vivo) was 1.2 fold.

Work on `C[C@H](NC(C)(C)C)[C@@H](O)c1cccc(Cl)c1` [threohydroxybupropion] yielded an apparent elimination half-life [4] of roughly 33 h.
